In one test the target is T1, mGluR5 receptor (Sus scrofa, UniProt I3LUI7).
T1 construct: 450 μg of protein from brain homogenate are incubated with 5 nM^3[H]-MPEP; from tissue; host or cells: pig brain hemispheres without medulla, cerebellum and pons
T1 sequence (I3LUI7 19-1212): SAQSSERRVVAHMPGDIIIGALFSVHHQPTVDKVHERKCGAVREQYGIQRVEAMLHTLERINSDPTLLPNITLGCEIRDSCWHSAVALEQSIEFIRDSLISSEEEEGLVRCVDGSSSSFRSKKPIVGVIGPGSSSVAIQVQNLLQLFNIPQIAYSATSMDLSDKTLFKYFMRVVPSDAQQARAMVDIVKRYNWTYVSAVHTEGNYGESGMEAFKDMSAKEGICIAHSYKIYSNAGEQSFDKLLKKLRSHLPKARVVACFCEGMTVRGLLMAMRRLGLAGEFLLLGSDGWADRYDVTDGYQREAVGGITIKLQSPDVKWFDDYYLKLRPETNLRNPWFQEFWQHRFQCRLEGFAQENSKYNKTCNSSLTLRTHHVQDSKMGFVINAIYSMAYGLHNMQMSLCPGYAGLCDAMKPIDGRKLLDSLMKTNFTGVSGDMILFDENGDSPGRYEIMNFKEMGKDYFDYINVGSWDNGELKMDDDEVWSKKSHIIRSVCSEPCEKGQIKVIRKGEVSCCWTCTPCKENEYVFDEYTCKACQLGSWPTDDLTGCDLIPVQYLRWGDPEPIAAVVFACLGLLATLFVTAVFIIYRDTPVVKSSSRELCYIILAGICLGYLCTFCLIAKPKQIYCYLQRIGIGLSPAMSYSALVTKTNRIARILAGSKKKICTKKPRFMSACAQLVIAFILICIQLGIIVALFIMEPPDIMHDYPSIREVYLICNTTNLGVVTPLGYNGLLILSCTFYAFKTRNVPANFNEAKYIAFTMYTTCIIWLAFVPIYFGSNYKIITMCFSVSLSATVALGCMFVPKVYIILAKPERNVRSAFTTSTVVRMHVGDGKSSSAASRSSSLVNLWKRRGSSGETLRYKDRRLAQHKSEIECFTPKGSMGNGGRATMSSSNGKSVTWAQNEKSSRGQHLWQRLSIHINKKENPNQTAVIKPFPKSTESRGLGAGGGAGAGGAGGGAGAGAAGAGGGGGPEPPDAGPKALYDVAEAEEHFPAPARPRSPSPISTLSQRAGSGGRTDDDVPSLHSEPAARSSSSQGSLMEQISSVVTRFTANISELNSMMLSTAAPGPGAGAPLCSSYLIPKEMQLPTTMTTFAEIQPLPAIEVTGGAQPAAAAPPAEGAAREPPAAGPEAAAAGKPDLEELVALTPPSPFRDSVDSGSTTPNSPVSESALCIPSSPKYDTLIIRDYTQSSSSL
Briefly: Affinity for the mGluR5 receptor: displacement of 3[H]-MPEP binding in pig brain homogenate. The conditions noted are these: 10 μM compound, 5 nM 3[H]-MPEP. As for the experimental part: II. Method for Determining the Affinity for the mGluR5 Receptor
In each case 450 μg of protein from brain homogenate are incubated with 5 nM^3[H]-MPEP (Tocris, order No. R1212) (MPEP=2-methyl-6-[…]) and the compounds to be investigated (10 μM in the assay) in buffer (as above) in 250 μl incubation mixtures in 96-well microtiter plates at room temperature for 60 min.
The filter plates were then dried at 55° C. for 60 min.
T2 sequence (P31652 whole entry): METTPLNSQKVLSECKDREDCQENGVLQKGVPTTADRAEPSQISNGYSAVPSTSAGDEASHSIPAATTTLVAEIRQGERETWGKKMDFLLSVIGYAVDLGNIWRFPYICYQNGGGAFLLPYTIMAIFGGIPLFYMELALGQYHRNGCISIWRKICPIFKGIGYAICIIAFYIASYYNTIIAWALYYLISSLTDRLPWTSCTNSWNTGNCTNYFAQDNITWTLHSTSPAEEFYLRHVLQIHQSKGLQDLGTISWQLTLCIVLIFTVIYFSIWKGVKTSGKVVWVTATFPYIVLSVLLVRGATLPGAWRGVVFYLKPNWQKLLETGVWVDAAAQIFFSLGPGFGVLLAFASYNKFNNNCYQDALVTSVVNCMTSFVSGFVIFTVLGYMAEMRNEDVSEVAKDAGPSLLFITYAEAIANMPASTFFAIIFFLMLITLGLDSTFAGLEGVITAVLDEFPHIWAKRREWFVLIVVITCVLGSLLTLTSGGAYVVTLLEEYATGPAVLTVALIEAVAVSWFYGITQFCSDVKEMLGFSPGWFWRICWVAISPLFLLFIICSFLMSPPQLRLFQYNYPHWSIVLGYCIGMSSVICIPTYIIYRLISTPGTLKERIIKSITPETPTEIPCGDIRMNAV
For the compound `CN(C)c1cccc2onc(NC(=O)C3CCCCC3)c12` [Example 73, cyclohexane-(4-dimethylaminobenzo[d]isoxazol-3-yl)carboxamide], the “mGluR5 receptor inhibition of the 3[H]-MPEP binding in % (10 μM)” value is 30.05%.
In turn, `O=C(Nc1noc2cccc(OCC(F)(F)F)c12)c1ccc(F)cc1C(F)(F)F` [Example 77, 4-fluoro-N-[4-(2,2,2-trifluoroethoxy)benzo[d]isoxazol-3-yl]-2-trifluoromethyl-benzamide] showed an inhibition at 10 µM of 38%.
Same read-out and setting: in the case of `O=C(Nc1noc2cccc(OCC(F)(F)F)c12)c1ccc(F)c(F)c1` [Example 82, 3,4-difluoro-N-[4-(2,2,2-trifluoroethoxy)benzo[d]isoxazol-3-yl]benzamide] it was 42%; in that of `O=C(Nc1noc2cc(Br)ccc12)c1ccc(F)c(F)c1` [Example 49, N-(6-bromobenzo[d]isoxazol-3-yl)-3,4-difluorobenzamide], 36.9%.

Another test addresses T2, 5-HT uptake (serotonin reuptake) (Rattus norvegicus, UniProt P31652).
T2 construct: from tissue; host or cells: rat medulla and pons synaptosomes (P2 fraction)
Kind of test: 5HT uptake inhibition in rat brain synaptosomes (medulla and pons), [3H]-5-HT.
Settings: not given
It counts as biochemical. An excerpt:
(§1) I. Method for Determining the Noradrenaline and 5HT Uptake Inhibition:
(§2) For in vitro studies, synaptosomes were freshly isolated from rat brain areas as described in the publication “The isolation of nerve endings from brain” by E. G. Gray and V. P. Whittaker, J. Anatomy 96, pages 79-88, 1962. The corresponding literature description is introduced hereby as reference and forms part of the disclosure.
(§3) The tissue (hypothalamus for determining the noradrenaline uptake inhibition and medulla and pons for determining the 5HT uptake inhibition) was homogenized in ice-cold 0.32 M sucrose (100 mg of tissue/1 ml) in a glass homogenizer with Teflon pestle using five full up and down strokes at 840 revolutions/minute. The homogenate was centrifuged at 1000 g and at 4° C. for 10 minutes. After subsequent centrifugation at 17 000 g for 55 minutes, the synaptosomes (P2 fraction) are obtained and were resuspended in 0.32 M […] (0.5 ml/100 mg of the original weight).
(§4) The respective uptake was measured in a 96-well microtiter plate. The volume was 250 μl and incubation took place at room temperature (approx. 20-25° C.) under an O2 atmosphere.
(§5) The incubation time was 7.5 minutes for [^3H]-NA and 5 minutes for [^3H]-5-HT. The 96 samples were then filtered through a Unifilter GF/B® microtiter plate (Packard) and washed with […] of incubated buffer using a “Brabdel MPXRI-96T Cell Harvester”. The Unifilter GF/B plate was dried at 55° C. for 1 h. The plate was then sealed with a Back Seal® (Packard) and 35 μl of scintillation fluid were added per well (Ultima Gold®, Packard). After sealing with a top Seal® (Packard), the radioactivity was determined, after equilibrium had been reached (about 5 h), in a “Trilux 1450 Microbeta” (Wallac).
(§6) The amount of protein employed in the above determination corresponded to the value disclosed in the literature, as described for example in “Protein measurement with the folin phenol reagent”, Lowry et al., J. Biol. Chem., 193, 265-275, 1951. A detailed description of the method can also be found in the literature, for example from M. Ch. Frink, H.-H. Hennies, W. Engelberger, M. Haurand and B. Wilffert (1996) Arzneim.-Forsch./Drug Res. 46 (III), 11, 1029-1036. The corresponding literature descriptions are hereby introduced as reference and form part of the disclosure.
Consider `O=C(Nc1noc2cc(Br)ccc12)C1C2CC3CC(C2)CC1C3` (stereo not drawn) [Example 24, adamantane-2-(6-bromobenzo[d]isoxazol-3-yl)carboxamide], for which the “5 HT uptake inhibition [%] conc. 10 μM” value is recorded as 79%.
For the compound `O=C(Nc1noc2cc(Br)ccc12)c1ccccc1C(F)(F)F` [Example 23, N-(6-bromobenzo[d]isoxazol-3-yl)-2-trifluoromethyl benzamide], the “5 HT uptake inhibition [%] conc. 10 μM” value amounted to 86%.
On the same count and under the same terms, in the case of `O=C(Nc1noc2cc(F)ccc12)c1cccs1` [Example 17, thiophene-2-(6-fluorobenzo[d]isoxazol-3-yl)carboxamide] it was 77%; in that of `COc1cccc2onc(NC(=O)c3cc(C(F)(F)F)cc(C(F)(F)F)c3)c12` [Example 33, N-(4-methoxybenzo[d]isoxazol-3-yl)-3,5-bistrifluoromethyl benzamide], 85%.

The same test, now with this note: conc. 10 μM.
As to `O=C(Nc1noc2ccc(F)cc12)c1ccc(Cl)c(Cl)c1` [Example 27, 3,4-dichloro-N-(5-fluorobenzo[d]isoxazol-3-yl)benzamide], at 10 µM the inhibition was 89%.
In turn, `COc1cccc(C(=O)Nc2noc3cc(Cl)ccc23)c1` [Example 20, N-(6-chlorobenzo[d]isoxazol-3-yl)-3-methoxybenzamide] came in with an inhibition at 10 µM of 77%.
Turning to `O=C(Nc1noc2cccc(OCC(F)(F)F)c12)c1cccc(Cl)c1` [Example 37, 3-chloro-N-[4-(2,2,2-trifluoroethoxy)benzo[d]isoxazol-3-yl]benzamide], the inhibition at 10 µM amounted to 90%.
Consider `CCC(C)C(=O)Nc1noc2cc(Br)ccc12` (stereo not drawn) [Example 25, N-(6-bromobenzo[d]isoxazol-3-yl)-2-methylbutyramide], for which the inhibition at 10 µM was 86%.
The same measure, in the same setting: in the case of `CN(C)c1cccc2onc(NC(=O)c3cccc(F)c3)c12` [Example 16, N-(4-dimethylaminobenzo[d]isoxazol-3-yl)-3-fluorobenzamide] it was 72%.
For the compound `O=C(Nc1noc2ccccc12)c1ccc(Cl)c(Cl)c1` [Example 14, N-benzo[d]isoxazol-3-yl-3,4-dichlorobenzamide], the inhibition at 10 µM is 69%.
On the same count and under the same terms, in the case of `CC(C)(C)c1ccc(C(=O)Nc2noc3cc(Br)ccc23)cc1` [Example 21, N-(6-bromobenzo[d]isoxazol-3-yl)-4-tert-butylbenzamide] it was 81%.
Regarding `COc1ccccc1C(=O)Nc1noc2cc(Br)ccc12` [Example 22, N-(6-bromobenzo[d]isoxazol-3-yl)-2-methoxybenzamide], the inhibition at 10 µM was determined as 79%.
Same read-out and setting: as for `O=C(Nc1noc2ccccc12)c1cccc(F)c1F` [Example 15, N-benzo[d]isoxazol-3-yl-2,3-difluorobenzamide], the figure is 86%; as for `O=C(Nc1noc2ccc(F)cc12)c1ccccc1C(F)(F)F` [Example 26, N-(5-fluorobenzo[d]isoxazol-3-yl)-2-trifluoromethylbenzamide], 82%.
The compound `CC(C)(C)c1ccc(C(=O)Nc2noc3cccc(OCC(F)(F)F)c23)cc1` [Example 38, 4-tert-butyl-N-[4-(2,2,2-trifluoroethoxy)benzo[d]isoxazol-3-yl]benzamide] yielded an inhibition at 10 µM of 77%.
Take `Cc1ccc2onc(NC(=O)c3ccccc3C(F)(F)F)c2c1` [Example 31, N-(5-methylbenzo[d]isoxazol-3-yl)-2-trifluoromethylbenzamide]: the inhibition at 10 µM came out at 69%.
The compound `CN(C)c1cccc2onc(NC(=O)c3cc(C(F)(F)F)cc(C(F)(F)F)c3)c12` [Example 35, N-(4-dimethylaminobenzo[d]isoxazol-3-yl)-3,5-bistrifluoromethylbenzamide] registered an inhibition at 10 µM of 86%.
Still for that read-out and setting: as for `CCC(C)C(=O)Nc1noc2cc(F)ccc12` (stereo not drawn) [Example 18, N-(6-fluorobenzo[d]isoxazol-3-yl)-2-methylbutyramide], the figure is 70%.
Compound `O=C(Nc1noc2ccc(Br)cc12)c1cc(C(F)(F)F)ccc1F` [Example 29, N-(5-bromobenzo[d]isoxazol-3-yl)-2-fluoro-5-trifluoromethylbenzamide] registered an inhibition at 10 µM of 83%.
For `COc1cccc2onc(NC(=O)c3cc(F)cc(F)c3)c12` [Example 34, 3,5-difluoro-N-(4-methoxybenzo[d]isoxazol-3-yl)benzamide], 10 µM produced 78% inhibition.
On the same count and under the same terms, as for `O=C(Nc1noc2ccccc12)c1ccccc1C(F)(F)F` [Example 13, N-benzo[d]isoxazol-3-yl-2-trifluoromethylbenzamide], the figure is 84%.

In another test the target is T3, NA transporter (Rattus norvegicus, UniProt Q63380).
T3 construct: from tissue; host or cells: rat hypothalamus synaptosomes (P2 fraction)
T3 sequence (Q63380 1-617): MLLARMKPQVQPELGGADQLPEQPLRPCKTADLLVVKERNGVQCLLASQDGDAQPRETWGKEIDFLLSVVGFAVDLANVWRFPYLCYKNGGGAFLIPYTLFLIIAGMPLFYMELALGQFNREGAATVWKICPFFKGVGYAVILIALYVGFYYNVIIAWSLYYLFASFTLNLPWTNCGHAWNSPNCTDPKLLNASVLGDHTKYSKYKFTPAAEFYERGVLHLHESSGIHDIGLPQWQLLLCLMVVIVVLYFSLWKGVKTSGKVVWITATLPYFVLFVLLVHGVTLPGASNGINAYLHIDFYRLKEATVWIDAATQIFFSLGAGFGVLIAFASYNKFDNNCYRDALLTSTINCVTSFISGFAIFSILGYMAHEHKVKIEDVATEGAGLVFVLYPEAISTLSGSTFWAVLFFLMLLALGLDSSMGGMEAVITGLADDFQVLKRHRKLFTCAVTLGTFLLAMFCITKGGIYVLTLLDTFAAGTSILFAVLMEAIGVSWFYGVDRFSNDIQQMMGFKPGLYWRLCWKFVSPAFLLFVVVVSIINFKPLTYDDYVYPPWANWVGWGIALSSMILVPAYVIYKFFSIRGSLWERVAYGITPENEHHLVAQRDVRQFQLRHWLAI
Briefly: Noradrenaline (NA) uptake inhibition in rat brain synaptosomes (hypothalamus), [3H]-NA.
Settings: not given
The class given is biochemical.
Text: as §1, §2, §3, §4, §5
The following characteristic data were found for the NA transporter:
as §6
For the compound `CN(C)c1cccc2onc(NC(=O)C3CCCCC3)c12` [Example 73, cyclohexane-(4-dimethylaminobenzo[d]isoxazol-3-yl)carboxamide], the “NA uptake inhibition [%] conc. 10 μM” value was found to be 70%.

The same test, now with this note: conc. 10 μM.
With `O=C(Nc1noc2cccc(OCC(F)(F)F)c12)c1ccc(F)cc1C(F)(F)F` [Example 77, 4-fluoro-N-[4-(2,2,2-trifluoroethoxy)benzo[d]isoxazol-3-yl]-2-trifluoromethyl-benzamide], at 10 µM the inhibition was 70%.
Turning to `O=C(Nc1noc2cccc(OCC(F)(F)F)c12)c1ccc(F)c(F)c1` [Example 82, 3,4-difluoro-N-[4-(2,2,2-trifluoroethoxy)benzo[d]isoxazol-3-yl]benzamide], 10 µM produced 68% inhibition.
Compound `CCCc1ccc(C(=O)Nc2noc3cc(Br)ccc23)cc1` [Example 48, N-(6-bromobenzo[d]isoxazol-3-yl)-4-propylbenzamide] came in with an inhibition at 10 µM of 61%.
With `O=C(Nc1noc2cc(Br)ccc12)c1ccc(C(F)(F)F)c(F)c1` [Example 45, N-(6-bromobenzo[d]isoxazol-3-yl)-3-fluoro-4-trifluoromethylbenzamide], at 10 µM the inhibition was 64%.
On the same count and under the same terms, as for `COc1cccc2onc(NC(=O)C(c3ccccc3)c3ccccc3)c12` [Example 7, N-(4-methoxybenzo[d]isoxazol-3-yl)-2,2-diphenylacetamide], the figure is 63%; as for `O=C(Nc1noc2cc(Br)ccc12)c1cc(F)cc(C(F)(F)F)c1` [Example 46, N-(6-bromobenzo[d]isoxazol-3-yl)-3-fluoro-5-trifluoromethylbenzamide], 65%; as for `O=C(Nc1noc2c(F)cccc12)c1ccc(I)cc1` [Example 55, N-(7-fluorobenzo[d]isoxazol-3-yl)-4-iodobenzamide], 69%.
Consider `O=C(Nc1noc2cc(Br)ccc12)c1ccc(F)c(F)c1` [Example 49, N-(6-bromobenzo[d]isoxazol-3-yl)-3,4-difluorobenzamide], for which the inhibition at 10 µM came out at 65%.
Still for that read-out and setting: in the case of `O=C(Nc1noc2cccc(OCC(F)(F)F)c12)c1ccc(F)c(F)c1F` [Example 80, 2,3,4-trifluoro-N-[4-(2,2,2-trifluoroethoxy)benzo[d]isoxazol-3-yl]benzamide] it was 66%; in that of `O=C(Nc1noc2cccc(OCC(F)(F)F)c12)c1ccc(C(F)(F)F)c(F)c1` [Example 79, 3-fluoro-N-[4-(2,2,2-trifluoroethoxy)benzo[d]isoxazol-3-yl]-4-trifluoromethyl-benzamide], 62%.

The record behind these values is patent publication US20080312301A1, “Substituted N-Benzo[D]Isoxazol-3-Yl-Amine Compounds as Inhibitors of Mglur5, Serotonin (5-Ht) and Noradrenaline Receptors, and Uses Thereof” (Gruenenthal GmbH, priority 2005, published 2008).
